In data set [1] the test system is cocaine-induced convulsions in Swiss Webster mice. The data set is described as follows: Cocaine-induced convulsions. It is filed as in vivo. To be noted: 30 mg/kg ip (highest dose tested), 15 min before cocaine 70 mg/kg ip, p < 0.05 Fisher's exact test.
Another data set has as its target human μ opioid receptor (Homo sapiens, UniProt P35372). The data set is described as follows: Opioid receptor binding, [3H]DAMGO displacement, CHO cell membranes. To be noted: 1.3 nM [3H]DAMGO, 120 min 25 °C.
Data set [2] relates to behavioral and neurotoxic effects of cocaine in mice. To be noted: cited from earlier work.
For the next data set, the system named is mice. To be noted: ref unpublished finding, R.R. Matsumoto, Morgantown, WV; cited from earlier work.

human μ opioid receptor, sequence (P35372 whole entry): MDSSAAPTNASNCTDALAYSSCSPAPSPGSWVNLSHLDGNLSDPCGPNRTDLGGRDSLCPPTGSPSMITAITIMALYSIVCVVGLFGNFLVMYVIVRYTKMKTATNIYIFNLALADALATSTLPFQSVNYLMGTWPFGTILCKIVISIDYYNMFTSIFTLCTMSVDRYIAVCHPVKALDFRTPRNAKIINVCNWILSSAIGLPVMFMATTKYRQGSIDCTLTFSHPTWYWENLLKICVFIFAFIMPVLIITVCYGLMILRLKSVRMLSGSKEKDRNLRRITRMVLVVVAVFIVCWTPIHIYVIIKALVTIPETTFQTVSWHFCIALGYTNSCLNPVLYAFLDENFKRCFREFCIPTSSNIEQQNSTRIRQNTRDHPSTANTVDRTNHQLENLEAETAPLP

Regarding `CN(CCc1ccccc1)[C@H]1CCCC[C@@H]1O` (relative stereo) [Compound 6, trans-2-(Methyl(phenethyl)amino)cyclohexanol], the “Attenuation of cocaine-induced convulsions” value in data set [1] was “significant attenuation of cocaine-induced convulsions”. In addition, at human μ opioid receptor, the “Opioid binding Ki ± SEM, μ” value is given as “no affinity”.

On to `c1ccc(CCN2CCCCC2)cc1` [AC927, N-phenethylpiperidine], for which, in data set [2], the “Effect on behavioral and neurotoxic effects of cocaine” value was “attenuated the behavioral and neurotoxic effects of cocaine in mice”. For the same compound, in the data set with mice, the “Therapeutic window / deaths at supratherapeutic doses” value is “relatively narrow therapeutic window, which can result in deaths in mice at supratherapeutic doses”.

The values above are taken from publication PMC8463110 (Bioorganic & medicinal chemistry, 2013).
